Activity calls are given as the source filed them.
Assays:
[1] = test system: Vero; assay: cells; format: functional, cell-based; settings: Chlorocebus sabaeus
[2] = HEK-293T viability loss, compound-treated – cell-based, uHTS hits, cytotoxicity control for B/T-cell NF-kB inhibitor project, dose response (AID 489019); format: functional;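 further: IC50 reflects cytotoxicity as loss of cell viability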
[3] = test system: Jurkat; assay: blockers of NF-kB activation in T cells – Jurkat, luciferase reporter, luminescence, B- and T-cell, dose response (AID 489004); format: functional, cell-based; settings: Homo sapiens;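 further: NF-kB luciferase reporter Jurkat cells stimulated with PMA plus ionomycin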
[4] = test system: HEK293; assay: cells; format: functional, cell-based; settings: Homo sapiens
[5] = test system: HEK293; assay: inhibition of NOD1-driven NF-kB reporter – cell-based, luminescence, uHTS, primary screen (AID 1578); format: functional; settings: Homo sapiens
[6] = test system: Vero; assay: viability of Vero cells under compound – cytotoxicity control for flavivirus capping enzyme inhibitors (AID 588742); format: functional; settings: Chlorocebus sabaeus
[7] = test system: HEK293; assay: NOD2 signaling inhibitors in MDP-stimulated cells, cell-based, uHTS, luminescence (AID 2001); format: functional; settings: Homo sapiens
[8] = test system: HEK293; assay: cells; format: functional, cell-based; settings: Homo sapiens; remark: listed apart in the source
[9] = molecular target: Genome polyprotein (dengue virus type 2, UniProt P29990); assay: flavivirus cap methylation enzyme inhibition – biochemical, confirmation dose response, primary screen (AID 588689); format: functional
Genome polyprotein, sequence (P29990 2492-3391 limits assumed): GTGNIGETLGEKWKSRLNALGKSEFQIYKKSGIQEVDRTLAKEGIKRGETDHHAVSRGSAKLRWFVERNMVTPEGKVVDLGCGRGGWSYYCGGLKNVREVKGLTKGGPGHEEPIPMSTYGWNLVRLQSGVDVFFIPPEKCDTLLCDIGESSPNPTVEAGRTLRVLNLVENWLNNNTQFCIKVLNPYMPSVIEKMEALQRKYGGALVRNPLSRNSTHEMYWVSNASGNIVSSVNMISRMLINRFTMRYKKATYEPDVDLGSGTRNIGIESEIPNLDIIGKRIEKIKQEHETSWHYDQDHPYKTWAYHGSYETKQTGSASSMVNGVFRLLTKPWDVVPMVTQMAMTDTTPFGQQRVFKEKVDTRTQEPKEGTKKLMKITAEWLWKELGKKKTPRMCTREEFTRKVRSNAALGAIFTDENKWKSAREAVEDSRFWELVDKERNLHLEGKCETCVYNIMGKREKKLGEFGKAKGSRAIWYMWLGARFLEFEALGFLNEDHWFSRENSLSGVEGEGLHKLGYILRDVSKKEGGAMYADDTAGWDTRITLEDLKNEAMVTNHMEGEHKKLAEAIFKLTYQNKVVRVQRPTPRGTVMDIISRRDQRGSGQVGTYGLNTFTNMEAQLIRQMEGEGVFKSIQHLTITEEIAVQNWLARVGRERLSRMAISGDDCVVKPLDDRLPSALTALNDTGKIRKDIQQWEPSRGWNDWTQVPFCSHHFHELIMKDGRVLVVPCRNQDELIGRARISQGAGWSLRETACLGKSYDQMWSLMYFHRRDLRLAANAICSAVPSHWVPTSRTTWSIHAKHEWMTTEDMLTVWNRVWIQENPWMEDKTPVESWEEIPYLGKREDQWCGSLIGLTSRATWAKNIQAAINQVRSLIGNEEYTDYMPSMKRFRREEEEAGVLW

[10] = molecular target: Photoreceptor-specific nuclear receptor (Homo sapiens, UniProt Q9Y5X4); format: functional, cell-based;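 further: CHO-S cells with Gal4-NCOR and VP16-NR2E3 two-hybrid luciferase reporter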
Photoreceptor-specific nuclear receptor, sequence (Q9Y5X4 whole entry, the tested form may be a part): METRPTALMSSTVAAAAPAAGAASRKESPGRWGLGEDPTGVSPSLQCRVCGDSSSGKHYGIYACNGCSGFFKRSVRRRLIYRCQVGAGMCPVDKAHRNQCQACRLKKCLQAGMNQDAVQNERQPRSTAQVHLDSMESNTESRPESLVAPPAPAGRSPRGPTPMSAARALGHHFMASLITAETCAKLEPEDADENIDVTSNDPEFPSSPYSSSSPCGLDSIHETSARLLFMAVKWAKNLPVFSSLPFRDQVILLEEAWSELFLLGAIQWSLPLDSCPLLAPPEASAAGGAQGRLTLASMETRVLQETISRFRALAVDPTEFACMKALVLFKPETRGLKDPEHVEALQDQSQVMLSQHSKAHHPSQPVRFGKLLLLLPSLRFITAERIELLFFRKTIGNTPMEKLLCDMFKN

[11] = molecular target: Delta-type opioid receptor (Homo sapiens, UniProt P41143); assay: Counterscreen for agonists of heterodimerization of the mu 1 (OPRM1) and delta 1 (OPRD1) opioid receptors: Luminescence-based cell-based high throughput dose response assay to identify agonists of OPRD1 homodimerization. [Related pubchem assays (depositor defined):AID504326, AID504355, AID504692, AID504904, AID504905]; format: functional
Delta-type opioid receptor, sequence (P41143 whole entry): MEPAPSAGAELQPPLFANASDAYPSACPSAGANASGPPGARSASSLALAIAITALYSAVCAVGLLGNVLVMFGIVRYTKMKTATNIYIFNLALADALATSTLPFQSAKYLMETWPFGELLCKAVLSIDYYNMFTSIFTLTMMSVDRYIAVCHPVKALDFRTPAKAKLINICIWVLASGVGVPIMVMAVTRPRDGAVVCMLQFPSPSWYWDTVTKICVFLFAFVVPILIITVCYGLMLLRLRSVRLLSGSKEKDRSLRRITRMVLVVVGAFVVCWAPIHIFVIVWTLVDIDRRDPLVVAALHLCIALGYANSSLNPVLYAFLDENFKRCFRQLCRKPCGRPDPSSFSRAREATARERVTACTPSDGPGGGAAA

[12] = molecular target: 5-hydroxytryptamine receptor 5A (Homo sapiens, UniProt P47898); assay: Counterscreen for agonists of OPRM1-OPRD1 heterodimerization: luminescence-based cell-based high throughput dose response assay to identify agonists of 5-hydroxytryptamine (serotonin) 5A receptor (HTR5A). [Related pubchem assays (depositor defined):AID504326, AID504355, AID504692, AID504904, AID504905]; format: functional
5-hydroxytryptamine receptor 5A, sequence (P47898 whole entry): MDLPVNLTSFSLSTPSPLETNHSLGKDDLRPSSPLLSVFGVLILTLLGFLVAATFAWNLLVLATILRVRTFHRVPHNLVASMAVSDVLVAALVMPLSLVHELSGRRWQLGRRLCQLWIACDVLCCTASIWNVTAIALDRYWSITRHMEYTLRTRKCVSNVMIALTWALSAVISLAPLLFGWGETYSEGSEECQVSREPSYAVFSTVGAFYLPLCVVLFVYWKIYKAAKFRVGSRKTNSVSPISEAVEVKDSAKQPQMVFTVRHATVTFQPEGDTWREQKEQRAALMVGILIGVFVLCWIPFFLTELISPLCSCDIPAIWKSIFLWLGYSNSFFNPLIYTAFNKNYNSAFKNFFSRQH

[13] = molecular target: Mu-type opioid receptor (Homo sapiens, UniProt P35372); assay: Counterscreen for agonists of heterodimerization of the mu 1 (OPRM1) and delta 1 (OPRD1) opioid receptors: Luminescence-based cell-based high throughput dose response assay to identify agonists of OPRM1 homodimerization.; format: functional;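 further: U2OS cells expressing OPRM1 and beta-arrestin as split beta-galactosidase partners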
Mu-type opioid receptor, sequence (P35372 whole entry): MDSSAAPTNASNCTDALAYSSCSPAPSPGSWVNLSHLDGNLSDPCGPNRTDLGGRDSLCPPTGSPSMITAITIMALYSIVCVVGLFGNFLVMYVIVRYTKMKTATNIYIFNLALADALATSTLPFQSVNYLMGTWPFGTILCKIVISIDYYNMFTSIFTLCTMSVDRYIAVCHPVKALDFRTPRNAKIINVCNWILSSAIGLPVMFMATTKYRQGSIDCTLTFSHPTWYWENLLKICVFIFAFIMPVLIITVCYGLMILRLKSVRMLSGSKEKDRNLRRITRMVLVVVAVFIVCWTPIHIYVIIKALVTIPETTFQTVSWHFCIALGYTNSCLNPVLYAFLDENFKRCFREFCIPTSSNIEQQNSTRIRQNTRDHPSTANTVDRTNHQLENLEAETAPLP

[14] = molecular target: T1, Short transient receptor potential channel 4 (Mus musculus, UniProt Q9QUQ5); assay: calcium entry via TRPC4 opening agents – cell-based, HEK293 TRPC4/mu-opioid, Fluo-4 calcium, dose response (AID 434937); format: functional
T1 sequence (Q9QUQ5 whole entry): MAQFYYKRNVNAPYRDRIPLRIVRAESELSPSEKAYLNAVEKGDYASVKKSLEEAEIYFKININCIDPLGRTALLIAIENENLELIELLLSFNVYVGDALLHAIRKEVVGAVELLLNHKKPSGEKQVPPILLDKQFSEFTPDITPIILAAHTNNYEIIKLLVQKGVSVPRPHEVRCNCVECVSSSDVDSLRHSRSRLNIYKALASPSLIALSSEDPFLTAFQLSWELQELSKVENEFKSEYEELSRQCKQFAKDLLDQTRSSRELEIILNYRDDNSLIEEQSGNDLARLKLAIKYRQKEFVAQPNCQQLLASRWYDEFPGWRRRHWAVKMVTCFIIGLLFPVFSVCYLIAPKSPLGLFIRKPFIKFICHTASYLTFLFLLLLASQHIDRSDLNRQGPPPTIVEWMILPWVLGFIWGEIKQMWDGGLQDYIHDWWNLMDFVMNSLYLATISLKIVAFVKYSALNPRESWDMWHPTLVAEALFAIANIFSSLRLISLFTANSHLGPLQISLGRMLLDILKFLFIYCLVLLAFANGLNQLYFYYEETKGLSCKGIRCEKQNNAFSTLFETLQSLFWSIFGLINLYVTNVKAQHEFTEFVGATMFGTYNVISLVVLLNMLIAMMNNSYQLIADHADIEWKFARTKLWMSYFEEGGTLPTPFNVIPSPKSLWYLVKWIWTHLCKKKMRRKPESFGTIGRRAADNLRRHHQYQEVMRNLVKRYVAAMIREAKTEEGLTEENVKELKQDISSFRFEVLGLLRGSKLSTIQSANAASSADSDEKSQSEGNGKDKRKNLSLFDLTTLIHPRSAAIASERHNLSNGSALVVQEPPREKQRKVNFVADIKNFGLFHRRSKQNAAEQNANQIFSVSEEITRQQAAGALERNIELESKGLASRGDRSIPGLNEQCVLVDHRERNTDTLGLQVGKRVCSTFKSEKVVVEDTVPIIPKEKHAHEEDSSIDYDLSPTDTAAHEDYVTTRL

[15] = test system: Escherichia coli; assay: microbe, parasite or virus in culture
[16] = test system: INS1; assay: INS-1E survival protection against cytokine death – cell-based, luminescence, retest, dose response (AID 449756); format: functional; settings: Rattus norvegicus;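 further: cell death triggered by IL-1 beta plus TNF-alpha plus IFN-gamma mixture; protective hits raise ATP signal compared with cytokine alone wells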
[17] = test system: Escherichia coli; assay: microbe, parasite or virus in culture; remark: listed apart in the source
[18] = molecular target: Tumor necrosis factor (Homo sapiens, UniProt P01375); assay: analog potency on TNFa NF-kB signaling – cell-based, revised, SAR follow-up (AID 2337); format: functional
Tumor necrosis factor, sequence (P01375 whole entry, the tested form may be a part): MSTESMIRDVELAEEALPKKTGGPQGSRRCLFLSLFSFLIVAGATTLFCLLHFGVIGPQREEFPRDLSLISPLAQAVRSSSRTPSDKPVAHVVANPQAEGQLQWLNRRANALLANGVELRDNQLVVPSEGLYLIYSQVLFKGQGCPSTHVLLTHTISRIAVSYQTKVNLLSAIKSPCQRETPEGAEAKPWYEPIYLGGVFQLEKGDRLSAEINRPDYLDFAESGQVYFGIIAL

[19] = molecular target: Nucleotide-binding oligomerization domain-containing protein 1 (Homo sapiens, UniProt Q9Y239); assay: blockers of NOD1 pathway activity – revised, SAR follow-up (AID 2333); format: functional
Nucleotide-binding oligomerization domain-containing protein 1, sequence (Q9Y239 whole entry, the tested form may be a part): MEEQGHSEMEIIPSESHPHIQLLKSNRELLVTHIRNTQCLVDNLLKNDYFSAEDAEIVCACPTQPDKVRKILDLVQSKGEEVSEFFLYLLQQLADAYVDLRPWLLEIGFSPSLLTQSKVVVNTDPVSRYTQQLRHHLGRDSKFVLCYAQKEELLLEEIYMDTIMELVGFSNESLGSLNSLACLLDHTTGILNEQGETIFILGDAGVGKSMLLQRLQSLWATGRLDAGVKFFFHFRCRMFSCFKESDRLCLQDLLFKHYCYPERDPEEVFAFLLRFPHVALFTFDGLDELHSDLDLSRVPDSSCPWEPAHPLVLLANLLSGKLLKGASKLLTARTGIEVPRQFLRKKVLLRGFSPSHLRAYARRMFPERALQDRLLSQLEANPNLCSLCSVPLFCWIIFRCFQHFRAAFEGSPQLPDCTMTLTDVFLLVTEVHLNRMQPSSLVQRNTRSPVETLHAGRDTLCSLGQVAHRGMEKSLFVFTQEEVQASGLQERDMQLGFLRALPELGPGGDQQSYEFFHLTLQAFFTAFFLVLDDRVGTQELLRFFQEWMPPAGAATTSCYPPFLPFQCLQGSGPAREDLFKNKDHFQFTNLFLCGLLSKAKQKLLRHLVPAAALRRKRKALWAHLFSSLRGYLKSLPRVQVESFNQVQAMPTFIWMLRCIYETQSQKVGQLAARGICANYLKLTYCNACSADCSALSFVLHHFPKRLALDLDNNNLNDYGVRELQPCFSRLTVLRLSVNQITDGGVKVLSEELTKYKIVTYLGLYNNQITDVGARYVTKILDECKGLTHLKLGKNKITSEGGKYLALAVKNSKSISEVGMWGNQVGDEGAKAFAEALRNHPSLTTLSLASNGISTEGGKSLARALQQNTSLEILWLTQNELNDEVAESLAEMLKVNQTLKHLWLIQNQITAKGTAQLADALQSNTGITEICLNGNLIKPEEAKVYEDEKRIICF

[20] = test system: HEK293; assay: cells; settings: Homo sapiens
[21] = molecular target: Nucleotide-binding oligomerization domain-containing protein 2 (Homo sapiens, UniProt Q9HC29); assay: PubChem AID 2334; format: functional
Nucleotide-binding oligomerization domain-containing protein 2, sequence (Q9HC29 whole entry, the tested form may be a part): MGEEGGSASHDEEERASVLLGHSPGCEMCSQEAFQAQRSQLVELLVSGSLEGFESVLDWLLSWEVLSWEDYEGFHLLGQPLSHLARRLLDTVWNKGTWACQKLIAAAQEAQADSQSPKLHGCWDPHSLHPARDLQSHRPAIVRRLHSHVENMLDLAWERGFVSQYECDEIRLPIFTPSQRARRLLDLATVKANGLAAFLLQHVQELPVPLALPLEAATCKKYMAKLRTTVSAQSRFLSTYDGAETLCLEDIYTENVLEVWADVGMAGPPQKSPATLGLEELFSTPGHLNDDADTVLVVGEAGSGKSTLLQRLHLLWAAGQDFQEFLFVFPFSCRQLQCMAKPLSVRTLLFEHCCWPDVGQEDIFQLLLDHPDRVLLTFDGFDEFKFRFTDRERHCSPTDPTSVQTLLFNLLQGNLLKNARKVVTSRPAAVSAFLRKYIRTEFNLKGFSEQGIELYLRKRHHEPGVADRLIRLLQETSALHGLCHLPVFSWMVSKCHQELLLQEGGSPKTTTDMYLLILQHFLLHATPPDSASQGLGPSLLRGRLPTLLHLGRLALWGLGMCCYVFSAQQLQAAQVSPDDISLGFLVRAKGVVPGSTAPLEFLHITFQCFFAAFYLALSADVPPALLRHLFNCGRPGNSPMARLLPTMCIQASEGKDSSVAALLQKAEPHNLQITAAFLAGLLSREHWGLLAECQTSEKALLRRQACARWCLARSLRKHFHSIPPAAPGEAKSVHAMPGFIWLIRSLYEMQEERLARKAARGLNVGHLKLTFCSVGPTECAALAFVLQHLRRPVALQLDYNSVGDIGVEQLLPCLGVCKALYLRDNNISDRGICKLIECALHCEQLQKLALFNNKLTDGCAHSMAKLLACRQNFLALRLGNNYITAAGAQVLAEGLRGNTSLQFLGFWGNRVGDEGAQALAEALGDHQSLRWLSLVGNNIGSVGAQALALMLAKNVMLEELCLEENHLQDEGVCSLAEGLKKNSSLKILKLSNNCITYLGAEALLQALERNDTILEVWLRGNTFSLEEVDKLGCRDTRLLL

CCOC(=O)c1c(-c2cccc3ccccc23)csc1NC(=O)C1C2CCC(O2)C1C(=O)O (configuration not stated)
IC50 [1]: > 25 µM (active)

O=C(Nc1nc(-c2ccc(F)c(F)c2)cs1)c1ccc(OCC2CCCO2)cc1 (configuration not stated)
IC50 [2]: > 80 µM (inactive) | IC50 [3]: > 80 µM (inactive)

CC(C)c1ccc(-c2csc(NC(=O)c3cccs3)c2C(=O)O)cc1
IC50 [4]: > 20 µM (inactive) | EC50 [5]: 8.7 µM (active) | CC50 [6]: > 40 µM (active) | IC50 [7]: 9.22 µM (active) | IC50 [8]: > 20 µM (inactive) | IC50 [9]: 39.9 µM (active) | IC50 [10]: 6.83 µM (active)

Cc1ccc(-n2cc(CNC(C)c3cnn(C)c3)c(-c3ccc(F)cc3)n2)cc1 (configuration not stated)
EC50 [11]: 37.3 µM (inactive) | EC50 [12]: > 92.5 µM (inactive) | EC50 [13]: 2.42 µM (active) | EC50 [14]: 1.88 µM (active)

Cc1ccc(Cn2nc(C)c(NC(=O)c3cc(C)no3)c2C)cc1
AC50 [15]: > 380 µM (inactive)

C=CCc1c(C)nc(C)nc1N/N=C/c1ccc(N(C)C)cc1
AC50 [16]: 2.54 µM (active) | AC50 [17]: 26.4 µM (active)

Cn1nccc1C(=O)N[C@@H]1CCCc2c1cnn2-c1ccccc1F
IC50 [18]: > 20 µM (inactive) | IC50 [19]: 18.7 µM (active) | IC50 [20]: > 20 µM (inactive) | IC50 [21]: > 20 µM (inactive)

O=C(C[C@H]1C[C@H](C(=O)N2CCOCC2)[C@@]2(CCC3CCCC3)c3[nH]c4cc(-c5ccco5)ccc4c3CCN2C1=O)NCCCn1ccnc1
AC50 [15]: 59.9 µM (active)

— ChEMBL document CHEMBL1201862, “PubChem BioAssay data set” (2004)
